A value given as a limit tells only on which side of the number the result lay.

The source of these data is patent publication EP3256120B1, “PSORALEN DERIVATIVES AS NON-PEPTIDIC INHIBITORS OF CHYMOTRYPSIN-LIKE ACTIVITY OF THE IMMUNOPROTEASOME” (Univerza v Ljubljani, priority 2015, dated 2016).

The first series addresses T1, β5i subunit of human immunoproteasome (Homo sapiens, UniProt P28062).
T1 construct: purchased Boston Biochem, Inc., Cambridge, MA, USA
Nature of the series: Evaluation of reversible inhibitors of the β5i subunit (mode of inhibition and Ki, Dixon plots). The series is classed as biochemical. As to conditions: competitive inhibitors (footnote b), Suc-LLVY-AMC 12.5 µM to 125 µM, immunoproteasome 0.25 µg/mL. As to the method: The test compounds from the preliminary inhibitory assay with residual activities equal to or lower than 60% were characterized further by determining the mode of inhibition (competitive, non-competitive, uncompetitive, mixed inhibition). The assays were performed as described above. Five or more different concentrations of the test compounds ranging from 0.1 µM to 100 µM were used to determine the kinetic parameters at four different substrate concentrations (Suc-LLVY-AMC ranging from 12.5 µM to 125 µM). Final concentration of the immunoproteasome remained the same as before (0.25 µg/mL). The results obtained were analyzed as outlined above (see Equations 1 and 2), and two plots were derived using Microsoft Office Excel 2007:
- 1/v plotted against inhibitor concentration (Dixon plot; v- velocity, equal to the slope of the line k),
- [S]/v plotted against different concentrations of inhibitor ([S] equals substrate concentration).
The mode of inhibition was estimated from the relative positions of the lines obtained.
By Ki is commonly meant the dissociation constant of the complex between target and ligand, obtained from inhibition or displacement. High values mean a looser hold on the target, low ones a stronger hold on the target. Take `Cc1c(CC(=O)O)c(=O)oc2cc3occ(-c4ccccc4)c3cc12`: the Ki is 2.4 µM.
Molecule `Cc1c(CCC(=O)O)c(=O)oc2cc3occ(-c4ccccc4)c3cc12` had a Ki of 1.6 µM.
`Cc1c(CC(=O)O)c(=O)oc2cc3occ(-c4ccc(Br)cc4)c3cc12` yielded an inhibitory constant (Ki) of 12.7 µM.
The same measure, in the same setting: next, `Cc1c(CCC(=O)O)c(=O)oc2cc3occ(-c4ccc(Br)cc4)c3cc12`: 137 µM.
Still for that read-out and setting: next, `COc1ccc(-c2coc3cc4oc(=O)c(CC(=O)O)c(C)c4cc23)cc1`: 8.2 µM; `COc1cccc(-c2coc3cc4oc(=O)c(CC(=O)O)c(C)c4cc23)c1`: 7 µM; `COc1cccc(-c2coc3cc4oc(=O)c(CCC(=O)O)c(C)c4cc23)c1`: 29.6 µM.
Consider `Cc1c(CC(=O)O)c(=O)oc2cc3occ(C4CCCCC4)c3cc12`, for which affinity was put at a Ki of 198 µM.
Same read-out and setting: next, `Cc1cc(-c2coc3cc4oc(=O)c(CC(=O)O)c(C)c4cc23)c(C)s1`: 36.5 µM.
For `Cc1cc(-c2coc3cc4oc(=O)c(CCC(=O)O)c(C)c4cc23)c(C)s1`, the affinity corresponds to a Ki of 52.3 µM.
For `Cc1cc(-c2coc3cc4oc(=O)c(CC(=O)O)c(C)c4cc23)c(C)o1`, the affinity, expressed as Ki, was 351 µM.
The molecule `Cc1c(CC(=O)O)c(=O)oc2cc3occ(-c4ccco4)c3cc12` had a Ki of 89.3 µM. Compared with the last molecule, the Ki is about 3.9-fold lower.
In turn, `Cc1c(CCC(=O)O)c(=O)oc2cc3occ(-c4ccco4)c3cc12` displayed a Ki of 116 µM.
As for `O=C(O)Cc1cc2cc3c(-c4ccccc4)coc3cc2oc1=O`, the Ki is 3.8 µM.
As to `Cc1c(CN)c(=O)oc2cc3occ(-c4ccccc4)c3cc12`, the Ki came out at 39.6 µM.

The subject of the next series is normal peripheral blood mononuclear cells.
Assay: not given
The note with it: exposure to high (up to 20 µM) concentrations; cited from earlier work.
In the case of `CC1=C(C(=O)N[C@H](C)C(=O)N[C@@H](Cc2c[nH]c3ccccc23)C(=O)N[C@@H](Cc2ccccc2)C(=O)[C@@]2(C)CO2)Cc2ccccc21` [PR-924], the “toxicities in normal peripheral blood mononuclear cells” value is recorded as “no significant toxicities”.

Another series has as its system other catalytic subunits (β1, β1i, β2, β2i).
Assay: not given
As to conditions: cited from earlier work.
With `CC1=C(C(=O)N[C@H](C)C(=O)N[C@@H](Cc2c[nH]c3ccccc23)C(=O)N[C@@H](Cc2ccccc2)C(=O)[C@@]2(C)CO2)Cc2ccccc21` [PR-924], the “inhibition of other catalytic subunits” value was “little or no inhibition”.

A further series concerns MHC-I receptors on the surface.
Assay: not given
The note with it: Muchamuel T. et al. 2009; cited from earlier work.
As to `COc1ccc(C[C@H](NC(=O)[C@H](C)NC(=O)CN2CCOCC2)C(=O)N[C@@H](Cc2ccccc2)C(=O)[C@@]2(C)CO2)cc1` [PR-957], the “reduction of the expression of MHC-I receptors on the surface to” value is given as 50%.

The next series concerns the target β5i (Homo sapiens, UniProt P28062).
Assay: not given
As to conditions: inhibition of the β5i; Singh A.V. et al. 2011; cited from earlier work.
What is called IC50 is the midpoint of a concentration-inhibition curve. Regarding `CC1=C(C(=O)N[C@H](C)C(=O)N[C@@H](Cc2c[nH]c3ccccc23)C(=O)N[C@@H](Cc2ccccc2)C(=O)[C@@]2(C)CO2)Cc2ccccc21` [PR-924], the IC50 is 0.022 µM.

Another series deals with T1, β5i subunit of human immunoproteasome. Nature of the series: Preliminary evaluation of inhibition of the β5i subunit (residual activity, Suc-LLVY-AMC fluorescence). The series is classed as biochemical. As to conditions: test compound 10 µM, 30 min preincubation at 37 °C, Suc-LLVY-AMC 25 µM, immunoproteasome 0.25 µg/mL. As to the method: Appropriate stock solutions (mM concentration) of the test compounds were prepared in DMSO. Subsequent dilutions of the compounds, as well as the immunoproteasome and the substrate were prepared in buffered solution (50 mM Tris-HCI (pH 8.0), 0.5 mM EDTA, 0.01% SDS). To a 96-well black microtiter plate, human immunoproteasome (final concentration, 0.25 µg/mL) (Boston Biochem, Inc., Cambridge, MA, USA) was added, followed by either test compounds (10 µM final concentration) or buffered solution (with and without the DMSO), which accounted for the control group. Microtiter plate was covered with aluminum foil and incubated at 37 °C for 30 minutes with medium agitation. The reaction was initiated by the addition of β5- and β5i-selective substrate Suc-LLVY-AMC (25 µM final concentration). The reaction progress was recorded on the BioTek Synergy HT microplate reader by monitoring fluorescence at 460 nm (λex = 360 nm) every 5 minutes for 120 min at 37 °C. At least two independent experiments were performed. The initial linear ranges (between 20th and 60th minute) were used to calculate the slope of the line (k) by dividing the difference of fluorescence intensities (F) with the time difference (t) (Equation 1). The residual activities in percentages were calculated from the slopes obtained (Equation 2). The calculations were performed in Microsoft Office Excel 2007. k = ΔF/Δt [formula] • k slope of the line • F fluorescence intensity • t time (min) Residualactivityin% = kt /knt *100% [formula] • kt slope of the line for the treated enzyme • knt slope of the line for the non-treated enzyme
As for `COc1ccc(-c2coc3cc4oc(=O)c(CCC(=O)O)c(C)c4cc23)cc1`, the “RA (%)” value is given as 84%.
For `Cc1c(CCC(=O)O)c(=O)oc2cc3occ(C4CCCCC4)c3cc12`, the “RA (%)” value is 102%.
For the molecule `Cc1cc(-c2coc3cc4oc(=O)c(CCC(=O)O)c(C)c4cc23)c(C)o1`, the “RA (%)” value is recorded as 100%.
In the case of `Cc1c(C(=O)O)c(=O)oc2cc3occ(-c4ccccc4)c3cc12`, the “RA (%)” value is given as 82%.
Still for that read-out and setting: next, `Cc1c(N)c(=O)oc2cc3occ(-c4ccccc4)c3cc12`: 88%.
On to `Cc1coc2cc3oc(=O)c(CC(=O)O)c(C)c3cc12` [n=1, 1R=Me], for which the “RA (%)” value was found to be 88%.
With `Cc1c(CC(=O)O)c(=O)oc2cc3occ(C(C)(C)C)c3cc12` [n=1, 1R=t-Bu], the “RA (%)” value was 85%.
In the case of `Cc1coc2cc3oc(=O)c(CCC(=O)O)c(C)c3cc12` [n=2, 1R=Me], the “RA (%)” value is reported as 94%.
Still for that read-out and setting: next, `Cc1c(CCC(=O)O)c(=O)oc2cc3occ(C(C)(C)C)c3cc12` [n=2, 1R=t-Bu]: 83%.

A further series shares this target. Nature of the series: Evaluation of irreversible inhibitors of the β5i subunit (IC50). The series is classed as biochemical. The note with it: Suc-LLVY-AMC 25 µM, immunoproteasome 0.25 µg/mL, fluorescence increase between 20th and 60th minute. As to the method:
The test compounds with time-dependent inhibitory activities were treated and evaluated as irreversible inhibitors. The assay was performed as described in the 44 section Preliminary evaluation of inhibition of the β5i subunit of human immunoproteasome. At least seven different concentrations of the test compounds ranging from 0.001 µM to 50 µM were used. The final concentrations of the substrate Suc-LLVY-AMC and the immunoproteasome were 25 µM and 0.25 µg/mL, respectively. At least two independent experiments were performed. The increases in fluorescence intensity between 20th and 60th minute and appropriate test compounds concentrations were analyzed with GraphPad Prism 5.01 to determine the IC50 values. Table 1. Inhibitory potencies of reversible psoralen-based inhibitors against the β5i subunit of the human immunoproteasome. The following compounds are not part of the invention.
Turning to `Cc1c(CC(=O)ON2C(=O)CCC2=O)c(=O)oc2cc3occ(-c4ccccc4)c3cc12`, the midpoint of inhibition, the IC50, lay at 6.4 µM.
With `Cc1c(CCC(=O)ON2C(=O)CCC2=O)c(=O)oc2cc3occ(-c4ccccc4)c3cc12`, the IC50 came to 0.09 µM.
With `C=CC(=O)Nc1c(C)c2cc3c(-c4ccccc4)coc3cc2oc1=O`, the midpoint of inhibition, the IC50, lay at 20.5 µM.

Another series deals with proteasomal β5 (Homo sapiens, UniProt P28074).
Assay: not given
The note with it: Singh A.V. et al. 2011; cited from earlier work.
Take `CC1=C(C(=O)N[C@H](C)C(=O)N[C@@H](Cc2c[nH]c3ccccc23)C(=O)N[C@@H](Cc2ccccc2)C(=O)[C@@]2(C)CO2)Cc2ccccc21` [PR-924]: the “selectivity for inhibition of the β5i over proteasomal β5” value is on record as over 100 fold.
